# US12264156B2, “Compounds and pharmaceutical compositions thereof for the treatment of diseases” (GALAPAGOS NV, priority 2018, dated 2025)
# Test system: LPS triggered IL-10 secretion in monocyte-derived macrophages (MdM)
# Experiment: MdM assay: LPS-triggered IL-10 (ELISA)
# Format: cell-based, human
# Details: LPS 200 ng/mL, supernatant after 2 h, maximal fold change vs LPS only
# Description: SIK inhibition inhibits TNFα and increases IL-10 release in LPS triggered monocyte-derived macrophages (MdM) and dendritic […] al. 2012; Sundberg et al. 2014; Ozanne et al. 2015). This assay evaluates illustrative compounds of the invention for their inhibition of LPS-induced TNFα and LPS triggered IL-10 secretion in monocyte-derived macrophages. PBMCs are isolated from human blood samples (buffycoats). The buffy coat is aseptically transferred into a 50 mL Falcon tube, and diluted 1/2 in PBS. Falcon tubes are filled with 20 mL LymphoprepTM, on top of which 25 mL of the buffy coat is carefully added, tubes are centrifuged for 35 min at 400 g in temperature controlled centrifuge, without brake, at 25° C. PBMCs are aspirated from the white interface layer between sample and LymphoprepTM. PBMCs are washed five times in PBS. Cells are resuspended in RPMI 1640 complete medium supplemented with 10% FBS, 1% P/S, and cell density is determined using a hematologic analyzer (Sysmex XS-500i). PBMCs are centrifuged at 300×g for 10 min and resuspended at a density of 1.0*10^7 cells/80 μL Miltenyi buffer (PBS, pH 7.4, 1% FBS, 2 mM EDTA). Starting from this point of the protocol all steps are performed on ice. 20 μL of CD14+ micro-beads are added per 1.0*10^7 cells, the tube is mixed and incubated for 15 min in the fridge at 4° C. Cell suspension volume is adjusted to total volume of 100 mL using Miltenyi buffer, mixed gently and subsequently centrifuged for 10 min at 300×g. Supernantant is discarded and cell pellet is resuspended in 12 mL of Miltenyi buffer. Four LS columns are placed in the MACS Separator (magnet) from Miltenyi Biotec, and are prewet by rinsing with 3 mL of MACS buffer per column. Three mL of cell suspension is added onto the column (max 1*10^8 of labelled cells/column), and columns are subsequently washed 3 times with 3 mL of Miltenyi buffer. The columns are removed from the magnets, and 5 mL of Miltenyi buffer are added to the column to flush out the CD14+ fraction by pushing the plunger into the column. The flushed fractions are collected in a fresh 50 mL Falcon and volume is adjusted to 30 mL using Miltenyi buffer, cells are centrifuged for 10 min at 300×g. The obtained cell pellet is resuspended in 10 mL RPMI w/o FBS, and cell density is determined using a hematologic analyser (Sysmex XS-500i). 100 000 cells are seeded per well of a 96-well plate for differentiation to MdM in RPMI 1640 medium supplemented with 10% FBS, 1% P/S and 100 ng/mL rhM-CSF. On day 5 the medium is refreshed with 100 μL RPMI 1640 medium supplemented with 10% FBS, 1% P/S and 100 ng/mL rhM-CSF. On day 10, MdMs are triggered and compound is added. A compound dilution plate is made in 100% DMSO by 3-fold dilution of 10 mM stock solution. An intermediate dilution plate (10× final concentration) is made by diluting the compound dilution plate 50-fold in RPMI medium. Medium is carefully removed from cell plates using multichannel pipette, and replaced by 80 μL fresh medium. 10 μL of the 10× final concentration compound is added to the cells and incubated for 1 hour at 37° C. before addition of trigger. No trigger conditions/trigger conditions are spiked with equal final DMSO concentrations of 0.2% DMSO. 10 μL of 10×LPS (final conc. 200 ng/mL) solution are added to all wells except for the 'no trigger wells' where 10 μL medium is added. Supernatant is collected after 2 h (IL-10 determination) and after 20 h (TNFα determination) of LPS triggering. […]
row,SMILES,IL-10 FCmax median
1,"CCN1CCCCC1COc1ccn2c(-c3cc(OC)c(C(=O)NC4CC4)c(OC(F)F)c3)cnc2c1 (centres unmarked) [compound 83, N-cyclopropyl-2-(difluoromethoxy)-4-[7-[(1-ethyl-2-piperidyl)methoxy]imidazo [1,2-a]pyridin-3-yl]-6-methoxy-benzamide]",++ (>1.5-4.5)
2,"COc1cc(-c2cnc3cc(OCC(C)(C)N)ccn23)cc(OC(F)F)c1C(=O)NC1CC1 [compound 104, 4-[7-(2-amino-2-methyl-propoxy)imidazo[1,2-a]pyridin-3-yl]-N-cyclopropyl-2-(difluoromethoxy)-6-methoxy-benzamide]",+ (≤1.5)
3,"CCN(CC)CCOc1ccn2c(-c3cc(OC)c(C(=O)NC4CC4)c(OC(F)F)c3)cnc2c1 [compound 107, N-cyclopropyl-4-[7-[2-(diethylamino)ethoxy]imidazo[1,2-a]pyridin-3-yl]-2-(difluoromethoxy)-6-methoxy-benzamide]",+ (≤1.5)
4,"COc1cc(-c2cnc3cc(OC[C@H]4CCCCN4C)ccn23)cc(OC(F)F)c1C(=O)NC1CC1 [compound 111, N-cyclopropyl-2-(difluoromethoxy)-6-methoxy-4-[7-[[(2R)-1-methyl-2-piperidyl]methoxy]imidazo[1,2-a]pyridin-3-yl]benzamide]",++ (>1.5-4.5)
5,"CNCCOc1ccn2c(-c3cc(OC)c(C(=O)NC4CC4)c(OC(F)F)c3)cnc2c1 [compound 117, N-cyclopropyl-2-(difluoromethoxy)-6-methoxy-4-[7-[2-(methylamino)ethoxy]imidazo[1,2-a]pyridin-3-yl]benzamide]",++ (>1.5-4.5)
6,"COc1cc(-c2cnc3cc(OCCN)ccn23)cc(OC(F)F)c1C(=O)NC1CC1 [compound 118, 4-[7-(2-aminoethoxy)imidazo[1,2-a]pyridin-3-yl]-N-cyclopropyl-2-(difluoromethoxy)-6-methoxy-benzamide]",++ (>1.5-4.5)
7,"COc1cc(-c2cnc3cc(OCCN4CCCC4)ccn23)cc2c1C(=O)N(CC(F)(F)F)CC2 [compound 123, 8-methoxy-6-[7-(2-pyrrolidin-1-ylethoxy)imidazo[1,2-a]pyridin-3-yl]-2-(2,2,2-trifluoroethyl)-3,4-dihydroisoquinolin-1-one]",++ (>1.5-4.5)
8,"COc1cc(-c2cnc3cc(OC[C@H]4CCCN4C)ccn23)cc2c1C(=O)N(CC(F)(F)F)CC2 [compound 124, 8-methoxy-6-[7-[[(2R)-1-methylpyrrolidin-2-yl]methoxy]imidazo[1,2-a]pyridin-3-yl]-2-(2,2,2-trifluoroethyl)-3,4-dihydroisoquinolin-1-one]",++ (>1.5-4.5)
9,"COc1cc(-c2cnc3cc(OCC4CCO4)ccn23)cc2c1C(=O)N(CC(F)(F)F)CC2 (centres unmarked) [compound 125, 8-methoxy-6-[7-(oxetan-2-ylmethoxy)imidazo[1,2-a]pyridin-3-yl]-2-(2,2,2-trifluoroethyl)-3,4-dihydroisoquinolin-1-one]",++ (>1.5-4.5)
10,"COc1cc(-c2cnc3cc(OCc4cnco4)ccn23)cc2c1C(=O)N(CC(F)(F)F)CC2 [compound 126, 8-methoxy-6-[7-(oxazol-5-ylmethoxy)imidazo[1,2-a]pyridin-3-yl]-2-(2,2,2-trifluoroethyl)-3,4-dihydroisoquinolin-1-one]",+ (≤1.5)
11,"COc1cc(-c2cnc3cc(OCC4CN(C)CCO4)ccn23)cc2c1C(=O)N(CC(F)(F)F)CC2 (centres unmarked) [compound 127, 8-methoxy-6-[7-[(4-methylmorpholin-2-yl)methoxy]imidazo[1,2-a]pyridin-3-yl]-2-(2,2,2-trifluoroethyl)-3,4-dihydroisoquinolin-1-one]",++ (>1.5-4.5)
12,"CCN(CC)CCOc1ccn2c(-c3cc4c(c(OC)c3)C(=O)N(CC(F)(F)F)CC4)cnc2c1 [compound 128, 6-[7-[2-(diethylamino)ethoxy]imidazo[1,2-a]pyridin-3-yl]-8-methoxy-2-(2,2,2-trifluoroethyl)-3,4-dihydroisoquinolin-1-one]",++ (>1.5-4.5)
13,"CN(C)CCOc1ccn2c(-c3cc(OC(F)F)c(C(=O)NC4CC4)c(OC(F)F)c3)cnc2c1 [compound 156, N-cyclopropyl-2,6-bis(difluoromethoxy)-4-[7-[2-(dimethylamino)ethoxy]imidazo[1,2-a]pyridin-3-yl]benzamide]",++ (>1.5-4.5)
14,"COc1cc(-c2cnc3cc(OCCN(C)C)ccn23)cc(OC(F)F)c1C(=O)NCC(F)(F)F [compound 166, 2-(difluoromethoxy)-4-[7-[2-(dimethylamino)ethoxy]imidazo[1,2-a]pyridin-3-yl]-6-methoxy-N-(2,2,2-trifluoroethyl)benzamide]",++ (>1.5-4.5)
15,"CNc1cc(-c2cnc3cc(OCCN(C)C)ccn23)cc2c1C(=O)N(CC(F)(F)F)CC2 [compound 167, 6-[7-[2-(dimethylamino)ethoxy]imidazo[1,2-a]pyridin-3-yl]-8-(methylamino)-2-(2,2,2-trifluoroethyl)-3,4-dihydroisoquinolin-1-one]",+ (≤1.5)
16,"COc1cc(-c2cnc3cc(OC[C@H]4CN(C)CCO4)ccn23)cc2c1C(=O)N(CC(F)(F)F)CC2 [compound 190, 8-methoxy-6-[7-[[(2R)-4-methylmorpholin-2-yl]methoxy]imidazo[1,2-a]pyridin-3-yl]-2-(2,2,2-trifluoroethyl)-3,4-dihydro isoquinolin-1-one]",++ (>1.5-4.5)
17,"COc1cc(-c2cnc3cc(OC[C@@H]4CN(C)CCO4)ccn23)cc2c1C(=O)N(CC(F)(F)F)CC2 [compound 191, 8-methoxy-6-[7-[[(2S)-4-methylmorpholin-2-yl]methoxy]imidazo [1,2-a]pyridin-3-yl]-2-(2,2,2-trifluoroethyl)-3,4-dihydroisoquinolin-1-one]",++ (>1.5-4.5)
18,"COc1cc(-c2cnc3cc(OCCN4C[C@@H]5C[C@H]4CO5)ccn23)cc(OC(F)F)c1C(=O)NC1CC1 [compound 206, N-cyclopropyl-2-(difluoromethoxy)-6-methoxy-4-[7-[2-[(1S,4S)-2-oxa-5-azabicyclo[2.2.1]heptan-5-yl]ethoxy]imidazo[1,2-a]pyridin-3-yl]benzamide]",++ (>1.5-4.5)
19,"COc1cc(-c2cnc3cc(OCCN4CCOCC4)ccn23)cc2c1C(=O)N(CC(F)F)CC2 [compound 218, 2-(2,2-difluoroethyl)-8-methoxy-6-[7-(2-morpholinoethoxy)imidazo [1,2-a]pyridin-3-yl]-3,4-dihydroisoquinolin-1-one]",++ (>1.5-4.5)
20,"COc1cc(-c2cnc3cc(OC[C@H]4COCCO4)ccn23)cc2c1C(=O)N(CC(F)F)CC2 [compound 219, 2-(2,2-difluoroethyl)-6-[7-[[(2R)-1,4-dioxan-2-yl]methoxy]imidazo[1,2-a]pyridin-3-yl]-8-methoxy-3,4-dihydroisoquinolin-1-one]",++ (>1.5-4.5)
21,"COc1cc(-c2cnc3cc(OCC4(C)CN(C)C4)ccn23)cc(OC(F)F)c1C(=O)NC1CC1 [compound 220, N-cyclopropyl-2-(difluoromethoxy)-4-[7-[(1,3-dimethylazetidin-3-yl)methoxy]imidazo[1,2-a]pyridin-3-yl]-6-methoxy-benzamide]",++ (>1.5-4.5)
22,"COc1cc(-c2cnc3cc(OC[C@@H]4COCCO4)ccn23)cc2c1C(=O)N(CC(F)(F)F)CC2 [compound 225, 6-[7-[[(2S)-1,4-dioxan-2-yl]methoxy]imidazo[1,2-a]pyridin-3-yl]-8-methoxy-2-(2,2,2-trifluoroethyl)-3,4-dihydroisoquinolin-1-one]",++ (>1.5-4.5)
23,"COc1cc(-c2cnc3cc(OCc4nncn4C)ccn23)cc(OC(F)F)c1C(=O)NC1CC1 [compound 227, N-cyclopropyl-2-(difluoromethoxy)-6-methoxy-4-[7-[(4-methyl-1,2,4-triazol-3-yl)methoxy]imidazo[1,2-a]pyridin-3-yl]benzamide]",++ (>1.5-4.5)
